Experimental findings from ChEMBL document CHEMBL1201862, “PubChem BioAssay data set” (2004) are described below.

Some test systems named below: DLD-1; SF-295; LXFL 529; SNB-19; HCC 2998; NCI-H460; NCI-H522; RXF 393; SK-MEL-28; K562; A498; MCF7; TK-10; OVCAR-5; HCT-116; ACHN; A549; Hs-578T; KM12; PC-3.
Common to all, as to test: NCI-60 cell line screen, 48 h

The structures appear in SMILES notation.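 Values below derive from 48-hour exposures of cells grown in 96-well plates, with endpoints linearly interpolated between the two concentrations bracketing the appropriate inhibition level. GI50: concentration for 50% inhibition of growth.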 Active and inactive are the calls of the source. No stated cut-off is given here; in the data, active = GI50 up to about 1.1 µM and inactive = higher.

For `COc1cccc2c1C(=N)c1c(O)c3c(c(O)c1C2=O)C[C@@](O)(C(C)=O)C[C@@H]3OC1CC(N)C(O)C(C)O1` (some centres undefined), the GI50 in the assay on DLD-1 is 2.2 µM (inactive); in the assay with SF-295, 0.000206 µM (active); in the assay with LXFL 529, 0.542 µM (active); in the assay on SNB-19, 0.00811 µM (active); with HCC 2998 it was 0.409 µM (active); with NCI-H460, 0.00573 µM (active). The GI50 is 0.163 µM (active) in the assay with NCI-H522; 1.23 µM (inactive) with RXF 393; 2.3 µM (inactive) with SK-MEL-28; 0.000159 µM (active) in the assay on K562; 3 µM (inactive) in the assay with A498; 0.805 µM (active) in the assay with MCF7. In addition, the GI50 in the assay with TK-10 is 1.31 µM (inactive); in the assay on OVCAR-5 it was 0.000445 µM (active); in the assay on HCT-116 it was 0.00745 µM (active); in the assay on ACHN, 0.244 µM (active); in the assay on A549 it was 0.00832 µM (active); in the assay with Hs-578T it was 0.00123 µM (active). In addition, the GI50 is 0.313 µM (active) in the assay with KM12 and < 0.01 µM (active) in the assay on PC-3.

As for `Nc1nc(O)c2[nH]nnc2n1` [8-AZAGUANINE], the GI50 with DLD-1 was 20 µM (inactive); in the assay on SF-295, 3.11 µM (inactive); with LXFL 529, 16.3 µM (inactive); in the assay on SNB-19, 42.7 µM (inactive); in the assay on HCC 2998, 19.2 µM (inactive); in the assay with NCI-H460, 11.4 µM (inactive). Also, the GI50 with NCI-H522 was 13.9 µM (inactive); in the assay on RXF 393, 0.143 µM (active); with SK-MEL-28, 0.728 µM (active); in the assay with K562, 0.268 µM (active); in the assay on A498, 11.6 µM (inactive); with MCF7 it was 40.8 µM (inactive). Also, the GI50 is 0.408 µM (active) in the assay with TK-10; 21.9 µM (inactive) in the assay with OVCAR-5; 0.881 µM (active) in the assay on HCT-116; 16.3 µM (inactive) in the assay on ACHN; 33 µM (inactive) with A549; 0.906 µM (active) with Hs-578T. For the same molecule, the GI50 in the assay on KM12 is 34.1 µM (inactive); with PC-3 it was 0.855 µM (active).

Turning to `CCc1cccc(C(C)C)c1NC(=O)C(=O)C(Cc1nc2ccccc2nc1O)C(=O)OC` (centres undefined), the GI50 in the assay on DLD-1, in the assay with SF-295, in the assay with LXFL 529, in the assay with SNB-19, with HCC 2998 and in the assay with NCI-H460 was > 100 µM (inactive) in each case. The GI50 in the assay with NCI-H522 is 98.4 µM (inactive); in the assay with RXF 393, > 100 µM (inactive); in the assay on SK-MEL-28 it was > 100 µM (inactive); in the assay with K562, > 100 µM (inactive); in the assay on A498 it was > 100 µM (inactive); with TK-10, > 100 µM (inactive). The GI50 was > 100 µM (inactive) in the assay on OVCAR-5; 40.7 µM (inactive) with HCT-116; > 100 µM (inactive) in the assay with ACHN; > 100 µM (inactive) in the assay on A549; > 100 µM (inactive) with KM12.

For `CCOC(=O)C(CC/C=C\c1ccccc1)N1CCC[C@H]1C(=O)OC` (some centres undefined), the GI50 in the assay on DLD-1, in the assay with SF-295, in the assay on LXFL 529, in the assay on SNB-19, with HCC 2998 and in the assay with NCI-H460 was > 100 µM (inactive) each time. Further, the GI50 was > 100 µM (inactive) in the assay on NCI-H522; > 100 µM (inactive) with RXF 393; > 100 µM (inactive) in the assay on SK-MEL-28; 49.4 µM (inactive) in the assay on K562; > 100 µM (inactive) in the assay with A498; > 100 µM (inactive) in the assay with TK-10. Further, the GI50 in the assay on OVCAR-5, with HCT-116, with ACHN, in the assay on A549 and in the assay on KM12 was > 100 µM (inactive) in each case.
